“Also recorded” adds a separate entry of the source. Where no end group is shown, it is not given here.

A short description of data set [1]: Circular dichroism conformational analysis. It is filed as physicochemical. The settings on record: for Conformation by circular dichroism, PEPTIDE +siRNA: CPP:siRNA molar ratio R 20, CPP 40 μM; for Conformation by circular dichroism, PEPTIDE +siRNA +charged LUVs / Conformation by circular dichroism, PEPTIDE +siRNA +neutral LUVs: R 20, CPP:lipid r 10, CPP 40 μM; for Conformation by circular dichroism, PEPTIDE: peptide free in solution, CPP 40 μM, rc = random coiled. How it is done: Circular dichroism (CD) measurements. CD spectra were recorded on a Jasco 810 (Japan) dichrograph in quartz suprasil cells (Hellma) with an optical path of 1 mm for peptide in solution or in the presence of liposomes vesicles. The same concentrations of peptide (40 μM) was used for each condition. Spectra were obtained from 3 accumulations between 190 nm and 260 nm with a data pitch of 0.5 nm, a bandwidth of 1 nm and a standard sensitivity.
The predicted structures were then compared to experimental investigations. Circular dichroism spectra were recorded for the peptides free in solution, afterwards for the peptides in the presence of siRNA and then after the addition of liposomes.

Data set [2] in a line: Dynamic light scattering and zeta potential of nanoparticles. It is filed as physicochemical. The settings on record: for Mean size (nm) I (%) / Mean size (nm) Nb (%): CPP:siRNA R = 20, 5% glucose; for Mean size (nm) I (%): intensity; for Mean size (nm) Nb (%): number. How it is done: Dynamic light scattering (DLS) and Zeta potential (ZP). CPPs:siRNA nanoparticles were evaluated with a Zetasizer NanoZS (Malvern) in terms of mean size (Z-average) of the particle distribution and of homogeneity (PdI). Zeta potential was determined in 5% glucose+5 mM of NaCl. All results were obtained from three independent measurements (three runs for each measurement at 25° C.).

For data set [3], the system named is firefly luciferase (FLuc) in U87 cells. Description: Luciferase reporter gene silencing assay. The class given is cell-based, human. The settings on record: for Incubation time for maximum and saturating FLuc silencing / Reduction of FLuc activity: 20 nM siFLuc; for Reduction in the luciferase activity in presence of serum: 10% serum, 15-20 nM siRNA (CPP1), 10-20 nM (CPP2); for Reduction of FLuc activity: 5 min incubation, then 36 h in medium; for Fold more active than C6M1-L in reduced luciferase expression / Fold more active than C6M1 in reduced luciferase expression: CPP=200 nM, siRNA=10 nM; for Luciferase knock-down at R=40 relative to R=20: R=40, siFLuc 20 nM. As to the method:
Transfection experiments. For Luciferase assay, the different cells (5,000 cells per well) were seeded 24 h before experiment into 96-well plates using the corresponding medium as described above. […] In the meantime, the growth medium covering the cells was replaced by 70 μL of fresh pre-warmed serum-free DMEM. […] After the addition of DMEM supplemented with 20% FBS (final FBS concentration=10%), cells were further incubated for 36 h and finally lysed for the luciferase detection. For transfection in the presence of serum, cells were incubated with nanoparticles in DMEM+10% FBS for 1.5 h at 37° C., and then DMEM supplemented with 10% FBS were added to the cells which were further incubated for 36 h before the final cell lyses for the luciferase detection.
Luciferase reporter gene silencing assay. The evaluation of siRNA delivery using the different vectors was carried out by measuring the remaining luciferase firefly (FLuc) activity in cell lysates. Briefly, after 36 h, the medium covering the cells was carefully removed and replaced by 50 μL of 0.5× Passive Lysis Buffer (PLB; Promega). After 30 min of shaking at 4° C., plates containing the cells were centrifuged (10 min, 1,800 rpm, 4° C.) and 5 μL of each cell lysate supernatant were finally transferred into a white 96-well plate. For the U87-FLuc-NLuc cells, both luciferase activities were quantified using a plate-reading luminometer (POLARstar Omega, BMG Labtech) using half-diluted Dual Luciferase Assay Reagents (Promega) as reported elsewhere (G. Aldrian, et al., (2017) J. Control. Release Off. J. Control. Release Soc. 256, 79-91). The results were expressed as percentage of relative light units (RLU) for each luciferase normalized first to non-treated cells (% FLuc and % NLuc) and then normalized to the value of % NLuc to obtain the Relative Luc Activity (% FLuc/% NLuc).
Cellular activity of CPP-based nanoparticles was evaluated in a luciferase screening assay, as previously described (L. N. Patel, et al., (2007) Pharm. Res. 24, 1977-1992; A. Elmquist, et al., (2001) Exp. Cell Res. 269, 237-244)). The knock-down efficiency of the different CPP:siRNA nanoparticles was performed on U87 cell line stably transfected for constitutive expression of FLuc/NLuc reporter genes (U87-FRT-CMV/Fluc-CMV/iRFP-IRES-NLuc).

The subject of data set [4] is U87 cells. Description: LDH cytotoxicity measurement. It is filed as cell-based, human. The settings on record: incubation times 5 min to 90 min, 20 nM siFLuc. As to the method:
Measurement of cell cytotoxicity. Evaluation of cytotoxicity induced by the nanoparticles was performed using Cytotoxicity Detection Kit^Plus (LDH, Roche Diagnostics) on 50 μL of supernatant, by following the manufacturer instructions.

Data set [5] has as its system U87 cells. Description: Cytotoxicity from Western blot internal control (vinculin) and total protein (BCA). The class given is cell-based, human. The settings on record: siCDK4 50 nM. As to the method: Western blotting. Transfected cells washed in PBS, and lysed in RIPA buffer [50 mM Tris pH 8.0, 150 mM sodium chloride, 1% Triton X-100, 0.1% SDS (sodium dodecyl sulfate, Sigma-Aldrich), including protease inhibitors (SigmaFAST, Sigma-Aldrich)]. Cells were incubated for 5 min on ice with 130 μL/24-well lysis buffer. Thereafter, cells were scrapped and transferred in a 1.5 ml tube. After 5 min on ice, the cell lysates were centrifuged (10 min, 13,400 rpm, 4° C.), supernatants were collected and protein concentrations were determined using the Pierce BCA Protein Assay (ThermoFisher). Cell extracts (0.25-0.38 μg/μL) were separated by 4-20% Mini-PROTEAN® TGX™ Precast Gel (Bio-Rad). After electrophoresis, samples were transferred onto Trans-Blot® Turbo™ Mini PVDF Transfer membrane (Bio-Rad). As antibodies (all from Cell Signaling), we used anti-cyclin B1 mouse mAb V152, anti-CDK4 rabbit mAb D9G3E, anti-Vinculin rabbit mAb E1E9V, anti-mouse IgG HRP and anti-rabbit IgG HRP. […] The signal intensities of the blots were quantified by Image J.
The cytotoxicity could be observed in Western blot using the internal control (Vinculin expression: bars in dark gray) or the total protein concentrations (measured by the BCA kit, value in red).

The subject of another data set is living U87 cells. Description: Spinning disk internalization kinetics of Cy3b-labelled siRNA. It is filed as cell-based, human. The settings on record: siRNA-Cy3b 20 nM, R=20; for Incubation time to maximal fluorescence of delivered siRNA: maximal fluorescence 90%±5%, 900 s to 945 s. As to the method: For microscopy experiments, 300,000 U87 cells were seeded 24 h before imaging into glass bottom dishes (FluoroDish, World Precision Instruments). Before experiments, cells were washed twice with D-PBS and covered with 1,600 μL of complete medium. Afterwards, 400 μL of NPs (peptide:siRNA; R=20, siRNA=20 nM), formulated in an aqueous solution of 5% glucose were directly added on the cells as previously described.
For Spinning disk experiment, an inverted microscope (Nikon Ti Eclipse) coupled to a spinning disk (ANDOR) system was used to study the internalization kinetics of the NPs inside living cells. After the addition of the NPs, cells were maintained at 37° C. by a cage incubator (Okolab) and images were directly recorded every 5 s for 1,200 s with an EM-CCD camera (iXon Ultra) and projected with the Andor IQ3 software. Control experiments were performed to ensure that no emission bleed through was observed between the different channels. All images were treated with the ImageJ software.

Data set [6] is described as follows: Dynamic light scattering and zeta potential of nanoparticles. The class given is physicochemical.
Data set [7] has as its system FLuc in U937 human macrophage. Description: Luciferase silencing on non-adherent macrophage suspension. The class given is cell-based. The settings on record: 10-50 nM siRNA without CPP. How it is done: FIG. 15: Evaluation of CPP1:siRNA and CPP2:siRNA PBNs activity on cell suspensions. […] Incubation conditions: 10,000 cells/well, CPP:siRNA ratio=20:1 at the indicated siRNA concentration, incubation time 1.5 h in serum-free medium. Normalization of FLuc/NLuc values to the condition of untreated cells (N.T.). Abbreviations: siSCR=scrambled siRNA, siFLuc=firefly luciferase specific siRNA. n=2 independent experiments in triplicates. […] Incubation conditions: 10,000 cells/well, CPP:siRNA ratio=20:1 at the indicated siRNA concentration, incubation time 1.5 h in medium containing 10% serum. Normalization of FLuc/NLuc values to the condition of untreated cells (N.T.). Abbreviations: siSCR=scrambled siRNA, siFLuc=firefly luciferase specific siRNA. n=2 independent experiments in triplicates. […] Incubation conditions: 10,000 cells/well, CPP:siRNA ratio=20:1 at the indicated siRNA concentration (or the siRNA alone), incubation time 1.5 h in serum-free medium. Normalization of FLuc values to the condition of untreated cells (N.T.). n=2 independent experiments in triplicates. Next, the transfection potential of the CPP2:siFLuc on non-adherent cells such as the firefly luciferase stably transfected U937 human macrophage was evaluated (FIG. 15C). […] The silencing efficiency was determined with 40%, 80% and 100% for the siRNA concentrations of 10 nM, 20 nM and 50 nM, respectively.

As to “LLWRLWRLLWRLWRLL-NH2 [CPP1, LLWRLWRLLWRLWRLL]”, in data set [1], the “Conformation by circular dichroism, PEPTIDE +siRNA” value is “alpha helical structure; also recorded: helix”; the “Conformation by circular dichroism, PEPTIDE +siRNA +charged LUVs” value is listed as “helix”; the “Conformation by circular dichroism, PEPTIDE +siRNA +neutral LUVs” value is “helix”; the “Conformation by circular dichroism, PEPTIDE” value was “rc/helix”. For the same substance, the “ZP (mV)” value in data set [2] (CPP:siRNA R = 20, 5% glucose with 5 mM NaCl) is reported as 42.2 ± 4.5 mV. Moreover, in data set [2], the “Mean size (nm) I (%)” value is reported as 73.3 ± 7.4 nm and the “Mean size (nm) Nb (%)” value turned out to be 26.5 ± 4.1 nm. Moreover, in data set [3], the “Incubation time for maximum and saturating FLuc silencing” value is listed as 60 min; the “Reduction in the luciferase activity in presence of serum” value is reported as “around 70%”; the “Reduction of FLuc activity” value is on record as 40%; the “Fold more active than C6M1-L in reduced luciferase expression” value came out at 6 fold. In data set [3], the “Fold more active than C6M1 in reduced luciferase expression” value stood at 3 fold and the “Luciferase knock-down at R=40 relative to R=20” value was “slightly increased”. Besides, in the data set on U87 cells [4], the Cytotoxicity result is “without any cytotoxicity”. Further, in the data set with U87 cells [5], the “Cytotoxicity (vinculin, total cellular proteins)” value was “without any cytotoxicity”. Moreover, in the data set on living U87 cells, the “IC50 values of internalization (50%), incubation time” value worked out at 240 s and the “Incubation time to maximal fluorescence of delivered siRNA” value is given as approximately 15 min. For the same substance, the “Mean size of CPP1:MBBO nanoparticles (DLS)” value in data set [6] (R=5, 10 μM CPP1) is recorded as 180 nm.
Take “5′-CUU-ACG-CUG-AGU-ACU-UCG-AdTdT-3′ [siFLuc]”: the “Knock-down efficiency of siRNA alone” value in data set [7] is “did not shown any knock-down efficiency”.
Consider “LLRLLRWWWRLLRLL-NH2 [CPP2, LLRLLRWWWRLLRLL]”, for which, in data set [1], the “Conformation by circular dichroism, PEPTIDE +siRNA” value is given as “alpha helical structure; also recorded: helix”; the “Conformation by circular dichroism, PEPTIDE +siRNA +charged LUVs” value is on record as “helix”; the “Conformation by circular dichroism, PEPTIDE +siRNA +neutral LUVs” value is given as “helix”; the “Conformation by circular dichroism, PEPTIDE” value is recorded as “turn/rc”. Besides, in data set [2], the “Mean size (nm) I (%)” value amounted to 80.0 ± 4.9 nm and the “Mean size (nm) Nb (%)” value stood at 35.7 ± 7.3 nm. Also, the “Reduction of firefly luciferase expression” value in data set [3] (1 nM to 20 nM siRNA, R 20, L or D isoform) was “dose-dependent manner”. In addition, in data set [3], the “Incubation time for maximum and saturating FLuc silencing” value was 60 min; the “Reduction in the luciferase activity in presence of serum” value is recorded as “around 70%”; the “Reduction of FLuc activity” value was 40%; the “Fold more active than C6M1-L in reduced luciferase expression” value was found to be 3.5 fold. Further, in data set [3], the “Fold more active than C6M1 in reduced luciferase expression” value worked out at 2 fold and the “Luciferase knock-down at R=40 relative to R=20” value is reported as “slightly increased”. For the same substance, in data set [3] (U87 cells, siFLuc 5-20 nM), the “Increase of knock-down efficiency, dilution condition versus vol:vol condition” value worked out at 2 fold. Besides, the Cytotoxicity entry in the data set on U87 cells [4] was “without any cytotoxicity”. In the data set with living U87 cells, the “IC50 values of internalization (50%), incubation time” value was determined as 185 s and the “Incubation time to maximal fluorescence of delivered siRNA” value is reported as approximately 15 min. In data set [6] (CPP:siRNA R = 20, 5% glucose with 1 mM NaCl), the “ZP (mV)” value is on record as 28.8 ± 0.9 mV.

Values taken from patent US11905338B2, “Peptides for use as cell-penetrating peptides” (CENTRE NATIONAL DE LA RECHERCHE SCIENTIFIQUE, priority 2018, dated 2024).
